According to BindingDB's records for PubMed 32711292 (n/a, 2020):

Legend:
Maltase-glucoamylase [1] = molecular target: T1, Maltase-glucoamylase (Homo sapiens, UniProt O43451); assay: Inhibition of alpha-glucosidase (unknown origin)
Maltase-glucoamylase [2] = molecular target: T1, Maltase-glucoamylase; assay: Inhibition of alpha-glucosidase (unknown origin) by HPLC analysis

T1 sequence (O43451 whole entry): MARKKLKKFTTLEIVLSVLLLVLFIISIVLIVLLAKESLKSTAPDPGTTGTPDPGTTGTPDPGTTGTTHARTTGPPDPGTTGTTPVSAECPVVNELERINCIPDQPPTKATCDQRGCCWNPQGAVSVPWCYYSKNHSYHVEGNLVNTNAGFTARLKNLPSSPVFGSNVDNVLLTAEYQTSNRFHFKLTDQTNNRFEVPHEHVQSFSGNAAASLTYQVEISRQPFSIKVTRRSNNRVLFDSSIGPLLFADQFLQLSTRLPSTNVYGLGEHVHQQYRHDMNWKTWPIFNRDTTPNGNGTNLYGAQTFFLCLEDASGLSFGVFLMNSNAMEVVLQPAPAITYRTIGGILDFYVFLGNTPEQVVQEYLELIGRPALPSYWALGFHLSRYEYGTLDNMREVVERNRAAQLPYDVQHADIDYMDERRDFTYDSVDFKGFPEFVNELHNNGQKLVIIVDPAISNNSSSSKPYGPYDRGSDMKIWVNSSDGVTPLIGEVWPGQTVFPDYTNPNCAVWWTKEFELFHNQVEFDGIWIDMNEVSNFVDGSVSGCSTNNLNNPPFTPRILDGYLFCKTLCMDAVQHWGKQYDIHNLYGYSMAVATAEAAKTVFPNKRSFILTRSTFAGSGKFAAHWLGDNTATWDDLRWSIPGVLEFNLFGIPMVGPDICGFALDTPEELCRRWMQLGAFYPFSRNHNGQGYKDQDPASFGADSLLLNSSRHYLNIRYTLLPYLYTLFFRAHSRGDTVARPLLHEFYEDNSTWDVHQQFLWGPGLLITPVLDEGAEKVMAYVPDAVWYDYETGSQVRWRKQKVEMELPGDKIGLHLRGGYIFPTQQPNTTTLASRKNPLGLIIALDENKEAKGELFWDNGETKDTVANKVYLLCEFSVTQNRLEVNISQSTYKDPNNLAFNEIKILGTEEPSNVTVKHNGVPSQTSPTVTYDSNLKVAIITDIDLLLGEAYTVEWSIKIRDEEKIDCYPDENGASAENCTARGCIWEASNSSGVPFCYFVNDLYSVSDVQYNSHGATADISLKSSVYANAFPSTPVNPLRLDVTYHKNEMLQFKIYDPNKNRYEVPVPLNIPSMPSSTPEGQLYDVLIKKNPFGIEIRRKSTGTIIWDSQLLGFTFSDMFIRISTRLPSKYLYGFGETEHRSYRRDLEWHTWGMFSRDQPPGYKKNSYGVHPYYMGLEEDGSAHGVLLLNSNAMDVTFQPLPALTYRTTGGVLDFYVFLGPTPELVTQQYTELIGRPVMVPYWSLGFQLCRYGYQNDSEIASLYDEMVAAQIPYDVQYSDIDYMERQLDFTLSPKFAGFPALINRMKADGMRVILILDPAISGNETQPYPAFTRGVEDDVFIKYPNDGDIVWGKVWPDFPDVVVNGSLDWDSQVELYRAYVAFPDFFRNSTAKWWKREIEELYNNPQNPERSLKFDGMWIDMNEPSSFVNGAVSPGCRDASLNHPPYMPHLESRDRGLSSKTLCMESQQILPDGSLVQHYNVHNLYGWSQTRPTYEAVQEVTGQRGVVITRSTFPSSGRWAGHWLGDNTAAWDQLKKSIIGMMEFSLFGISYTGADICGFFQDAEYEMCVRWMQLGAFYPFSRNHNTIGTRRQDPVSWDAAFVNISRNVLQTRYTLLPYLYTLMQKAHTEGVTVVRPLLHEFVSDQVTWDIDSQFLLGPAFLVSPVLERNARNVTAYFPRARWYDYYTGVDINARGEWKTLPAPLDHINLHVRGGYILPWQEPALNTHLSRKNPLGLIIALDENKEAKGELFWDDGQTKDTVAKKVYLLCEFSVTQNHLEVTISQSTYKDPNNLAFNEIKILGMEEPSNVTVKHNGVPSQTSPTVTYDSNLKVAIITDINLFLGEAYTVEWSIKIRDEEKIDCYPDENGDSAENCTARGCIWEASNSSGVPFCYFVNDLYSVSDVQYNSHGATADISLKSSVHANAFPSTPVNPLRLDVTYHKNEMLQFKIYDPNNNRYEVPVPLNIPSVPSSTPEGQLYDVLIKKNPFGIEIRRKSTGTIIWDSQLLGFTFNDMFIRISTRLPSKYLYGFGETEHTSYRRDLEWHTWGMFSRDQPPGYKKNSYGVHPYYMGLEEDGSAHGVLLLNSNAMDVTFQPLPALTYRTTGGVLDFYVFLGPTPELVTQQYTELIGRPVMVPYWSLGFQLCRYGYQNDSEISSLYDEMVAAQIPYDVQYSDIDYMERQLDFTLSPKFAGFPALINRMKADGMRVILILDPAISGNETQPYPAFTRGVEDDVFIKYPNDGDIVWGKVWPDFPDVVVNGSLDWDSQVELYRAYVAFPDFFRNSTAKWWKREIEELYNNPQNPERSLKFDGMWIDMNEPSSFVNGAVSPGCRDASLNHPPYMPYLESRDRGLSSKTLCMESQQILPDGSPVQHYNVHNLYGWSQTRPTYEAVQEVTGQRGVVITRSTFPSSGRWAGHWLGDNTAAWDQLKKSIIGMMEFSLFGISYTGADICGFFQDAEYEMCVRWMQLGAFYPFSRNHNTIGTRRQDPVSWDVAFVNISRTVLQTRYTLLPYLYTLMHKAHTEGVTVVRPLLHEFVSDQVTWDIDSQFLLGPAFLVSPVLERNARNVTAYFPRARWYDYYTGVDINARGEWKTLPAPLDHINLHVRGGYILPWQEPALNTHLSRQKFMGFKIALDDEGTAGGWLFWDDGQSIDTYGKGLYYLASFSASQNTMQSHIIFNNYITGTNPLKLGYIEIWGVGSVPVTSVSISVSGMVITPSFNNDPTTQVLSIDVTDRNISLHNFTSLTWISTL

| IC50 (Maltase-glucoamylase [1]) [µM] | IC50 (Maltase-glucoamylase [2]) [µM] | Compound |
| --- | --- | --- |
| 103 | – | COc1cc(O)cc(CCc2ccc(O)c(OC)c2)c1 [GIGANTOL] |
| 149 | – | COc1cc(O)cc(CCc2cccc(O)c2)c1 [Batatasin III (4)] |
| – | 200 | COc1ccc(CCc2cc(O)c(O)c(OC)c2)cc1 |
| – | 9460 | COc1cc([C@@H]2Oc3cc(CCc4ccc(O)cc4)cc(OC)c3O[C@H]2CO)cc(OC)c1O |
| – | 214 | COc1cc(CCc2cccc(O)c2)cc(O)c1O |
